Literature values, collected in US10550144B2, “6-aryl-9-glycosylpurines and use thereof” (UNIVERZITA PALACKEHO V OLOMOUCI, priority 2014, dated 2020).

What was measured:
[1] = tested on: Herpes simplex virus; conditions: Masakatsu et al. 1977; cited from earlier work
[2] = tested on: Vaccinia virus; conditions: Masakatsu et al. 1977, cited from earlier work

| Structure (SMILES) | activity in killing Herpes simplex virus [1] | activity in killing Vaccinia virus [2] | activity against Vaccinia virus, strain IHD [2] |
| --- | --- | --- | --- |
| Cc1cccc(C)c1CNc1ncnc2c1ncn2[C@@H]1O[C@H](CO)[C@@H](O)[C@@H]1O [2,6-dimethylbenzyl] | No effect | No effect | – |
| Cc1ccc(C)c(CNc2ncnc3c2ncn3C2OC(CO)C(O)C2O)c1 (centres unmarked) [2,5-dimethylbenzyl] | – | – | low activity |
| Cc1ccc(CNc2ncnc3c2ncn3C2OC(CO)C(O)C2O)c(C)c1 (centres unmarked) [2,4-dimethylbenzyl] | – | – | low activity |
| Cc1ccc(CNc2ncnc3c2ncn3[C@@H]2O[C@H](CO)[C@@H](O)[C@@H]2O)cc1C [3,4-dimethylbenzyl] | No effect | No effect | – |
| OC[C@H]1O[C@@H](n2cnc3c(NCc4ccccc4)ncnc32)[C@@H](O)[C@@H]1O [6-benzylamino-9-β-D-arabinofuranosylpurine] | No effect | No effect | – |
